In general, MIC refers to the smallest concentration in the dilution series that meets the test's criterion for growth inhibition. One may read the IC50 as the concentration needed to halve the response being measured.

Results on two compounds are retold here after publication PMC10967822, “Antimicrobial Indole-3-Carboxamido-Polyamine Conjugates Target Bacterial Membranes and Are Antibiotic Potentiators” (Biomolecules, 2024).

Values after ≈ are worked out from the molar mass of the structure shown.

One series relates to C. albicans ATCC 90028. In words: Antifungal MIC (CO-ADD), C. albicans. It counts as cell-based. To be noted: Candida albicans, ATCC90028, top dose 32 µg/mL. The protocol: (§1) For the antifungal assay, fungi strains were cultured for 3 days on YPD agar at 30 °C. A yeast suspension of 1 × 10^6 to 5 × 10^6 CFU/mL was prepared from five colonies. These stock suspensions were diluted with a yeast nitrogen base (YNB) (Becton Dickinson, 233520, New South Wales, Australia) broth to a final concentration of 2.5 × 10^3 CFU/mL. […] The plates were covered and incubated at 35 °C for 36 h without shaking. C. albicans MICs were determined by measuring the absorbance at OD530. For C. neoformans, resazurin was added at a 0.006% final concentration to each well and incubated for a further 3 h before the MICs were determined by measuring the absorbance at OD570–600. […] Fluconazole was used as a positive fungal inhibitor standard for C. albicans and C. neoformans. […] The quality control (QC) of the assays was determined by the antimicrobial controls and the Z′-factor (using positive and negative controls).
Consider `COc1ccc2[nH]cc(C(=O)NCCCNCCCCCCCCCCCCNCCCNC(=O)c3c[nH]c4ccc(OC)cc34)c2c1.O=C(O)C(F)(F)F.O=C(O)C(F)(F)F` [Compound 14f], for which the MIC was at most 0.28 µM.

On to `Cc1ccc2[nH]cc(C(=O)NCCCNCCCCNCCCNC(=O)c3c[nH]c4ccc(C)cc34)c2c1` [Compound 15a], for which the MIC is above 43 µM.

A further series relates to K. pneumoniae ATCC 700603. The experiment in a line: MIC, broth microdilution (CO-ADD), K. pneumoniae. To be noted: top dose 32 µg/mL. (In general: In broth dilution the organism is exposed to a series of concentrations in liquid medium.)
For the compound `COc1ccc2[nH]cc(C(=O)NCCCNCCCCCCCCCCCCNCCCNC(=O)c3c[nH]c4ccc(OC)cc34)c2c1.O=C(O)C(F)(F)F.O=C(O)C(F)(F)F` [Compound 14f], the “MIC Kp” value was above 36 µM.

As for `Cc1ccc2[nH]cc(C(=O)NCCCNCCCCNCCCNC(=O)c3c[nH]c4ccc(C)cc34)c2c1` [Compound 15a], the “MIC Kp” value is given as above 43 µM.

The next series has as its system P. aeruginosa ATCC 27853. The experiment in a line: Doxycycline potentiation against P. aeruginosa. It counts as cell-based, Pseudomonas aeruginosa. To be noted: doxycycline at 2 µg/mL (4.5 µM), P. aeruginosa ATCC 27853. The text has this:
(§2) These measurements were independently repeated in triplicate.
For the compound `COc1ccc2[nH]cc(C(=O)NCCCNCCCCCCCCCCCCNCCCNC(=O)c3c[nH]c4ccc(OC)cc34)c2c1.O=C(O)C(F)(F)F.O=C(O)C(F)(F)F` [Compound 14f], the “Dox/Pa fold-change (intrinsic MIC / combination MIC)” value worked out at 2 fold.

For `Cc1ccc2[nH]cc(C(=O)NCCCNCCCCNCCCNC(=O)c3c[nH]c4ccc(C)cc34)c2c1` [Compound 15a], the “Dox/Pa fold-change (intrinsic MIC / combination MIC)” value was above 8 fold.

The series is the same for the next values; noted with them: doxycycline at 2 µg/mL (4.5 µM), P. aeruginosa ATCC 27853, mean n = 3.
Turning to `COc1ccc2[nH]cc(C(=O)NCCCNCCCCCCCCCCCCNCCCNC(=O)c3c[nH]c4ccc(OC)cc34)c2c1.O=C(O)C(F)(F)F.O=C(O)C(F)(F)F` [Compound 14f], the “Dox/Pa: concentration required to restore doxycycline activity (combination MIC)” value is listed as 56.2 µM.

As to `Cc1ccc2[nH]cc(C(=O)NCCCNCCCCNCCCNC(=O)c3c[nH]c4ccc(C)cc34)c2c1` [Compound 15a], the “Dox/Pa: concentration required to restore doxycycline activity (combination MIC)” value was found to be 33.6 µM.

A further series relates to C. neoformans ATCC 208821. In words: Antifungal MIC (CO-ADD), C. neoformans. To be noted: Cryptococcus neoformans, ATCC208821, top dose 32 µg/mL. The series is classed as cell-based. The protocol:
as §1
Take `COc1ccc2[nH]cc(C(=O)NCCCNCCCCCCCCCCCCNCCCNC(=O)c3c[nH]c4ccc(OC)cc34)c2c1.O=C(O)C(F)(F)F.O=C(O)C(F)(F)F` [Compound 14f]: the MIC is at most 0.28 µM.

With `Cc1ccc2[nH]cc(C(=O)NCCCNCCCCNCCCNC(=O)c3c[nH]c4ccc(C)cc34)c2c1` [Compound 15a], the MIC was at most 0.34 µM.

The subject of the next series is human red blood cells. In words: Hemolytic assay. To be noted: 10% hemolytic activity, mean n = 2. It counts as cell-based. How it is done: Human whole blood was washed three times with three volumes of 0.9% NaCl and then resuspended in the same solution to a concentration of 0.5 × 10^8 cells/mL, as determined by the manual cell count in a Neubauer hemocytometer. The washed cells were then added to the 384-well compound-containing plates for a final volume of 50 μL. After a 10 min shake on a plate shaker, the plates were then incubated for 1 h at 37 °C. After incubation, the plates were centrifuged at 1000× g for 10 min to pellet cells and debris; 25 μL of the supernatant was then transferred to a polystyrene 384-well assay plate. Hemolysis was determined by measuring the supernatant absorbance at […] (OD405). The absorbance was measured using a Tecan M1000 Pro monochromator plate reader. HC10 and HC50 (concentrations at 10% and 50% hemolysis, respectively) were calculated by a curve fitting the inhibition values vs. log (concentration) using a sigmoidal dose–response function with variable fitting values for the top, bottom, and slope.
As to `COc1ccc2[nH]cc(C(=O)NCCCNCCCCCCCCCCCCNCCCNC(=O)c3c[nH]c4ccc(OC)cc34)c2c1.O=C(O)C(F)(F)F.O=C(O)C(F)(F)F` [Compound 14f], the “Hemolysis HC10” value is given as above 36 µM.

Consider `Cc1ccc2[nH]cc(C(=O)NCCCNCCCCNCCCNC(=O)c3c[nH]c4ccc(C)cc34)c2c1` [Compound 15a], for which the “Hemolysis HC10” value is above 43 µM.

Tested on in another series: not listed separately
The experiment in a line: Cytotoxicity assay (resazurin). It counts as cell-based. To be noted: human, HEK293 cells, mean n = 2.
For the compound `COc1ccc2[nH]cc(C(=O)NCCCNCCCCCCCCCCCCNCCCNC(=O)c3c[nH]c4ccc(OC)cc34)c2c1.O=C(O)C(F)(F)F.O=C(O)C(F)(F)F` [Compound 14f], the IC50 at 20 h is above 36 µM.

With `Cc1ccc2[nH]cc(C(=O)NCCCNCCCCNCCCNC(=O)c3c[nH]c4ccc(C)cc34)c2c1` [Compound 15a], the IC50 at 20 h was above 43 µM.

Another series concerns S. aureus ATCC 25923. The experiment in a line: MIC, broth dilution, S. aureus. It counts as cell-based, Staphylococcus aureus. To be noted: Staphylococcus aureus, ATCC25923; S. aureus ATCC 25923, 18 h; read-out: MIC Sa.
In the case of `COc1ccc2[nH]cc(C(=O)NCCCNCCCCCCCCCCCCNCCCNC(=O)c3c[nH]c4ccc(OC)cc34)c2c1.O=C(O)C(F)(F)F.O=C(O)C(F)(F)F` [Compound 14f], the MIC turned out to be 3.52 µM.

As for `Cc1ccc2[nH]cc(C(=O)NCCCNCCCCNCCCNC(=O)c3c[nH]c4ccc(C)cc34)c2c1` [Compound 15a], the minimum inhibitory concentration (MIC) was determined as 67.1 µM (≈ 34.7 µg/mL).

In the next series the test system is P. aeruginosa ATCC 27853. In words: MIC, broth dilution, P. aeruginosa. To be noted: Pseudomonas aeruginosa, ATCC27853; P. aeruginosa ATCC 27853, 18 h; read-out: MIC Pa. It counts as cell-based, Pseudomonas aeruginosa.
On to `COc1ccc2[nH]cc(C(=O)NCCCNCCCCCCCCCCCCNCCCNC(=O)c3c[nH]c4ccc(OC)cc34)c2c1.O=C(O)C(F)(F)F.O=C(O)C(F)(F)F` [Compound 14f], for which the MIC was 112 µM.

Take `Cc1ccc2[nH]cc(C(=O)NCCCNCCCCNCCCNC(=O)c3c[nH]c4ccc(C)cc34)c2c1` [Compound 15a]: the MIC is above 269 µM.

For another series, the system named is MRSA ATCC 43300. In words: MIC, broth microdilution (CO-ADD), MRSA. The series is classed as cell-based, methicillin-resistant S. aureus. To be noted: Staphylococcus aureus; MRSA ATCC 43300; top dose 32 µg/mL; read-out: MIC MRSA.
Consider `COc1ccc2[nH]cc(C(=O)NCCCNCCCCCCCCCCCCNCCCNC(=O)c3c[nH]c4ccc(OC)cc34)c2c1.O=C(O)C(F)(F)F.O=C(O)C(F)(F)F` [Compound 14f], for which the MIC was at most 0.28 µM.

As for `Cc1ccc2[nH]cc(C(=O)NCCCNCCCCNCCCNC(=O)c3c[nH]c4ccc(C)cc34)c2c1` [Compound 15a], the MIC is at most 0.34 µM.

Another series relates to E. coli ATCC 25922. The experiment in a line: MIC, broth dilution, E. coli. The series is classed as cell-based, Escherichia coli. To be noted: Escherichia coli, ATCC25922; E. coli ATCC 25922, 18 h.
In turn, `COc1ccc2[nH]cc(C(=O)NCCCNCCCCCCCCCCCCNCCCNC(=O)c3c[nH]c4ccc(OC)cc34)c2c1.O=C(O)C(F)(F)F.O=C(O)C(F)(F)F` [Compound 14f] registered an MIC of 14.1 µM.

`Cc1ccc2[nH]cc(C(=O)NCCCNCCCCNCCCNC(=O)c3c[nH]c4ccc(C)cc34)c2c1` [Compound 15a] had an MIC above 269 µM.

In the next series the test system is E. coli ATCC 25922. In words: Erythromycin potentiation against E. coli. The series is classed as cell-based, Escherichia coli. To be noted: erythromycin at 2 µg/mL (2.7 µM), E. coli.
Source text: as §2
In the case of `COc1ccc2[nH]cc(C(=O)NCCCNCCCCCCCCCCCCNCCCNC(=O)c3c[nH]c4ccc(OC)cc34)c2c1.O=C(O)C(F)(F)F.O=C(O)C(F)(F)F` [Compound 14f], the “Erythro/Ec fold-change (intrinsic MIC / combination MIC)” value is listed as 1 fold.

For `Cc1ccc2[nH]cc(C(=O)NCCCNCCCCNCCCNC(=O)c3c[nH]c4ccc(C)cc34)c2c1` [Compound 15a], the “Erythro/Ec fold-change (intrinsic MIC / combination MIC)” value is on record as above 4 fold.

Still in this series, the particulars now being: erythromycin at 2 µg/mL (2.7 µM), mean n = 3.
As for `COc1ccc2[nH]cc(C(=O)NCCCNCCCCCCCCCCCCNCCCNC(=O)c3c[nH]c4ccc(OC)cc34)c2c1.O=C(O)C(F)(F)F.O=C(O)C(F)(F)F` [Compound 14f], the “Erythro/Ec: concentration required to restore erythromycin activity (combination MIC)” value was determined as 14.1 µM.

`Cc1ccc2[nH]cc(C(=O)NCCCNCCCCNCCCNC(=O)c3c[nH]c4ccc(C)cc34)c2c1` [Compound 15a]: the “Erythro/Ec: concentration required to restore erythromycin activity (combination MIC)” value turned out to be 67.1 µM.

A further series has as its system A. baumannii ATCC 19606. The experiment in a line: MIC, broth microdilution (CO-ADD), A. baumannii. The series is classed as cell-based, Acinetobacter baumannii. To be noted: Acinetobacter baumannii, ATCC19606, top dose 32 µg/mL.
In the case of `COc1ccc2[nH]cc(C(=O)NCCCNCCCCCCCCCCCCNCCCNC(=O)c3c[nH]c4ccc(OC)cc34)c2c1.O=C(O)C(F)(F)F.O=C(O)C(F)(F)F` [Compound 14f], the MIC was above 36 µM.

Compound `Cc1ccc2[nH]cc(C(=O)NCCCNCCCCNCCCNC(=O)c3c[nH]c4ccc(C)cc34)c2c1` [Compound 15a] showed an MIC above 43 µM.
